Results taken from patent publication US12594268B2, “Methods of treating Fabry disease in patients having a mutation in the GLA gene” (Amicus Therapeutics, Inc., priority 2018, dated 2026).

Target: T1, α-Gal A mutant form K391E (Homo sapiens, UniProt P06280, K391E)
T1 construct: expressed in transfected cells; host or cells: HEK-293
T1 sequence (P06280 32-429 K391E): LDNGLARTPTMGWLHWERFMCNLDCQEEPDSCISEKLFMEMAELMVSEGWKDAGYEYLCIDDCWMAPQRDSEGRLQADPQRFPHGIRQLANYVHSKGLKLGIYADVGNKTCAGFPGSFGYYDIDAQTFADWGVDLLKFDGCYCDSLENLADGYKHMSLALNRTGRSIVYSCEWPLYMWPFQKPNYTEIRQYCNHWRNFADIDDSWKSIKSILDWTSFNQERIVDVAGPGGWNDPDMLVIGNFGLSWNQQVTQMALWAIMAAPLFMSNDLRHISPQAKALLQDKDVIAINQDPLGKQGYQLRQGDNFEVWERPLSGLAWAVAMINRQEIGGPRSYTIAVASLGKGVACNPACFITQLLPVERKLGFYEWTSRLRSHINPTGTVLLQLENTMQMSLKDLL
Test: α-Gal A activity in lysates of transfected HEK-293 cells, K391E
Format: cell-based
Procedure: Baseline and 10 μM migalastat α-Gal A activity: Differences in the α-Gal A activity between lysates incubated in the absence and presence of 10 μM migalastat were determined using a one-tailed, Mann Whitney U test; an increase at 10 μM migalastat with a p<0.05 was considered significant.
10 μM migalastat α-Gal A activity (% WT)=(α-Gal A activity in mutant transfected cell lysates incubated with 10 μM migalastat÷α-Gal A activity in wild-type transfected cell lysates without migalastat)*100.
Absolute increase (% WT)=is the 10 μM migalastat α-Gal A activity (% WT) minus the baseline α-Gal A activity (% WT).
Relative increase is the 10 μM migalastat α-Gal A activity in mutant transfected cell lysates÷baseline α-Gal A activity in mutant transfected cell lysates incubated without migalastat.

[1] = HEK-293 lysates, 10 μM migalastat, 5 days, mean ± SEM

## OC[C@H]1NC[C@H](O)[C@@H](O)[C@H]1O [migalastat, (2R,3S,4R,5S)-2-(hydroxymethyl) piperdine-3,4,5-triol]
10 μM migalastat minus baseline
  Absolute increase (% WT): 20.0 % WT
10 μM migalastat ÷ baseline activity
  Relative increase: 2.03
[1]
  10 μM migalastat α-Gal A activity: 15979 ± 1367 nmol/mg/h
  10 μM migalastat α-Gal A activity (% WT): 40.4 ± 2.9 % WT
